Reference: article PMC10385826, “Towards Symmetric Thioamides: Microwave-Aided Synthesis of Terephthalic Acid Derivatives” (Pharmaceuticals, 2023)

Key:
[1] = design: method as in PMID 16673812; settings: oral administration; cited from earlier work

Row | SMILES | melting point [°C] | LD50 [1] [mg/kg]
1 | COC(=O)C(NC(=S)c1ccc(C(=S)NC(C(=O)OC)C(C)C)cc1)C(C)C (stereo not drawn) | 160 | –
2 | COC(=O)C(Cc1ccc(O)cc1)NC(=O)c1ccc(C(=O)NC(Cc2ccc(O)cc2)C(=O)OC)cc1 (stereo not drawn) | 185 | –
3 | COC(=O)C(CO)NC(=O)c1ccc(C(=O)NC(CO)C(=O)OC)cc1 (stereo not drawn) | 169 | –
4 | COC(=O)C(C)NC(=S)c1ccc(C(=S)NC(C)C(=O)OC)cc1 (stereo not drawn) | 174 | –
5 | COC(=O)C(NC(=O)c1ccc(C(=O)NC(C(=O)OC)C(C)C)cc1)C(C)C (stereo not drawn) | 115 | –
6 | O=C(O)c1ccc(C(=O)O)cc1 [TPA, Terephthalic acid] | – | > 5000
7 | COC(=O)CNC(=S)c1ccc(C(=S)NCC(=O)OC)cc1 | 86 | –
8 | COC(=O)C(Cc1ccc(O)cc1)NC(=S)c1ccc(C(=S)NC(Cc2ccc(O)cc2)C(=O)OC)cc1 (stereo not drawn) | 170 | –
9 | COC(=O)C(CO)NC(=S)c1ccc(C(=S)NC(CO)C(=O)OC)cc1 (stereo not drawn) | 179 | –
